Values quoted from earlier work, collected in patent US20220296715A1, “METHOD FOR PREVENTING PRECIPITATION OF INJECTABLE SOLUTION CONTAINING p-BORONOPHENYLALANINE” (Stella Pharma Corporation, priority 2019, published 2022).

Settings: physiological pH

For `N[C@@H](Cc1ccc(B(O)O)cc1)C(=O)O` [p-Boronophenylalanine, p-boronophenylalanine], the solubility is listed as “very poor solubility”.
